Calls of active or inactive are those of the source. The calls are words filed in the database; no cut-off is given here.
Key:
[1] = test system: Radical scavenging activity; test: Effect on glutathione/ferric ion-induced oxidative damage of herring sperm DNA assessed as reduction in 8-OHdG level; type: functional; set-up: scale not given: the % may be the effect or the level left; conditions: Clupea
[2] = test system: Radical scavenging activity; test: Effect on CumOOH-induced oxidative damage of herring sperm DNA assessed as reduction in 8-OHdG level; type: functional; set-up: scale not given: the % may be the effect or the level left; conditions: Clupea

| Molecule | Activity [1] | Activity [2] |
| --- | --- | --- |
| Oc1cc(O)c2c(c1)OC(c1ccc(O)c(O)c1)C(O)C2 (racemic) | 36% | 32% |
| COc1ccc(C2CSc3ccc(O)cc3O2)cc1 (configuration not stated) | Active | inactive |
| COc1ccc(C2CSc3c(O)cc(O)cc3O2)cc1 (configuration not stated) | Active | inactive |
| COc1cc(OC)c2c(c1)OC(c1ccc(O)c(O)c1)CS2 (configuration not stated) |  | 30% |
| COc1ccc(C2CSc3cc(O)ccc3O2)cc1 (configuration not stated) |  | inactive |
| VITAMIN E | 33% | 61% |
| Oc1cc(O)c2c(c1)OC(c1ccc(O)c(O)c1)CS2 (configuration not stated) | 82% | 30% |
